Data reported in patent US6713512B1, “Uses of kombic acid as an anticancer and cholesterol-lowering agent” (priority 2001, dated 2004).
≈ marks a conversion by molar mass, not a printed value. Where “and” joins values, the source holds several entries; their conditions need not be identical. Identical values can stand only once. Like-named read-outs stand apart in the source and are kept apart here.

Columns and labels:
[1] = tested on: Rat liver microsomes lipid peroxidation; test: Lipid peroxidation in rat liver microsomes induced by ascorbic acid and ferrous sulfate (MDA/thiobarbituric acid); assay type: biochemical; conditions: for IC50: concentration required to inhibit lipid peroxidation by 50%, obtained by plotting
Procedure: Rat liver microsomes, previously incubated with or without inhibitor, were treated with ascorbic acid and ferrous sulfate to induce lipid peroxidation. The extent of lipid peroxidation was determined by the amount of malondialdehyde produced, which was determined by reaction with thiobarbituric acid.
Biological specimens contain a mixture of thiobarbituric acid reactive substances (TBARS), including lipid hydroperoxides and aldehydes, which increase as a result of oxidative stress. TBARS return to normal levels over time, depending upon the presence of antioxidants. In practice, TBARS are expressed in terms of malondialdehyde (MDA) equivalents. In this assay, an MDA standard is used to construct a standard curve against which unknown samples can be plotted. The presence of this compound is measured by fluorometry or spectrophotometry.

[2] = tested on: Human low density lipoprotein; test: Copper-induced lipid peroxidation of human low density lipoprotein (MDA/thiobarbituric acid); assay type: biochemical; conditions: for antioxidant activity compared with natural vitamin E: result in words; for IC50: 10 μM copper
Procedure: Human low density lipoprotein was dialyzed, incubated with or without inhibitor, and then treated with 10 μM copper to induce lipid peroxidation for several hours. The extent of lipid peroxidation was determined by the amount of malondialdehyde produced, which was determined by reaction with thiobarbituric acid as described above.

[3] = tested on: PAP2 (ras-transformed NIH 3T3 mouse fibroblasts) cells; test: Proliferation of PAP2 cells; assay type: cell-based
[4] = Plasma cholesterol and apoB in humans; assay type: in vivo
From the text: (§1) Hypercholesterolemia associated with elevated LDL (low-density lipoprotein) cholesterol is a risk factor for CHD (coronary heart disease). LDL-cholesterol combined with oxidative stress can contribute to the formation and development of atherosclerotic plaques. To lower the risk of CHD, antioxidants such as Kombic Acid and its derivatives counteract LDL oxidation.

[5] = tested on: MCF-7 estrogen receptor-positive human breast cancer cells; test: Proliferation of estrogen receptor-positive cells; assay type: cell-based; conditions: alone
Procedure: Human breast cancer cells are incubated in the presence and absence of kombic acid and its derivatives individually. The IC50 (the concentration of Kombic Acid or its derivatives required to inhibit cell proliferation by 50%) is then determined.

HepG2 cells = test: Medium apoB of LDL-like lipoprotein secreting cells (ELISA); assay type: cell-based; conditions: nontoxic concentrations, serum-free medium
Procedure: The apoB-lowering potential of Kombic Acid and its derivatives is evaluated in cells that secrete and catabolize lipoproteins similar to LDL, for example, but not limited to HepG2 cells. Confluent cells are preincubated in serum-free medium, which inhibits cell proliferation and stimulates biosynthesis of LDL-like lipoproteins. They are subsequently incubated in the same medium in the presence or absence of Kombic Acid or its derivatives at the range of nontoxic concentrations. For each compound, the highest nontoxic concentration is predetermined by a viability assay, such as but not limited to the 3-(4,5-dimethylthiazol-2-yl)-2,5-diphenyltetrazolium bromide (MTT) viability assay. At the end of the incubation, changes in medium concentration of apoB B are evaluated by ELISA and compared with changes induced in the absence of kombic acid or its derivatives.

[6] = tested on: MDA-MB-435 estrogen receptor-negative human breast cancer cells; test: [3H] thymidine incorporation, estrogen receptor-negative cells; assay type: cell-based
Procedure: Human cancer cells, such as, but not limited to, MDA-MB-435 estrogen receptor-negative human breast cancer cells are incubated in the presence of varying concentrations of kombic acid or its derivatives. The incorporation of [^3H] thymidine into the DNA of the cells is measured.

[7] = Oxygen Stability Index of edible oil; assay type: physicochemical; conditions: for antioxidant effectiveness in edible oil: result in words; for Hours to end-point: 110° C.
Procedure: The Oxygen Stability Index is used to measure the effectiveness of antioxidants in the stabilization of edible oils against oxidative degradation. The “Hours to end-point” indicate when a time/conductivity curve changes shape, with a sharp slope upturn at that time point. The temperature of the test, which measures conductivity of a solution into which oxidation products from the oil being tested is passed, is 110° C.

PKC = test: Protein kinase C activity; assay type: biochemical
[8] = Cholesterol lowering in animal models; assay type: in vivo
From the text: as §1

MCF-7 cells = test: Effect of excess estrogen on inhibition in steroid-depleted cells; assay type: cell-based, human; conditions: presence of estradiol
From the text: The effect of Kombic Acid and its derivatives on the estrogen receptor is investigated. Human cancer cells in culture, such as, but not limited to, MCF-7 cells are depleted of steroids and treated with Kombic Acid, its derivatives, tocotrienols, or tamoxifen (used as a positive control) in the presence or absence of estradiol.

[9] = tested on: Ehrlich carcinoma, sarcoma 180, implanted murine carcinoma (IMC) tumors, Meth-A fibrosarcoma; test: Survival of mice bearing tumor cells; assay type: in vivo; conditions: injected intraperitoneally
From the text: Such mice bearing tumor cells include, but are not limited to Ehrlich carcinoma, sarcoma 180, or implanted murine carcinoma (IMC) tumors, Meth-A fibrosarcoma or other tumors.

[10] = inhibitor concentration 0.156 μg/mL
[11] = inhibitor concentration 0.313 μg/mL
[12] = inhibitor concentration 0.625 μg/mL
[13] = inhibitor concentration 0.625 μg/mL, peroxidation (nmoles MDA) with inhibitor divided by without
[14] = read-out: IC50: mean +/− Standard Deviation
[15] = individual determinations, read-out: IC50: data

Compound	IC50 [1] [µg/mL]	% Inhibition [1, 10] [%]	Remaining lipid peroxidation (fraction of control) [1, 10]	% Inhibition [1, 11] [%]	Remaining lipid peroxidation (fraction of control) [1, 11]	% Inhibition [1, 12] [%]	Remaining lipid peroxidation (fraction of control) [1, 13]	antioxidant activity compared with natural vitamin E [2]	antioxidant effectiveness in edible oil [7]	reversal of inhibition by excess estrogen (MCF-7 cells)	IC50 [2, 14] [µM]	IC50 [2, 15]	also measured
Cc1c(C)c2c(c(C)c1O)CCC(C)(CCCC(C)CCCC(C)CCCC(C)C)O2 (racemic) [dl-α-tocopherol, reference compound]	0.31 (≈ 0.72 µM)	8	0.92	50	0.50	66	0.34	inhibit peroxidation equally as well as natural (d) vitamin E	–	–	–	–	–
CC(=CCCC(C)=CCc1cc(O)cc(C)c1O)CCC=C(C)CCC=C(C)C(=O)O [Kombic Acid, 16(2′,5′-dihydroxy-3′-methylphenyl)-2,6,10,14-tetramethyl-2,6,10,14-hexadecatetraenoic acid]	0.20 (≈ 0.469 µM)	36	0.64	89	0.11	90	0.10	no significant difference in antioxidant activity	effective antioxidants	does not reverse the inhibition	5.2	7.8 µM and 2.1 µM and 2.2 µM and 8.5 µM and 5.2 µM	cell proliferation [3]: inhibit the proliferation of these cells; plasma total and LDL cholesterol and apoB [4]: effective in reducing elevated plasma levels of total and LDL cholesterol as well as plasma apolipoprotein B (apoB) concentrations; cell proliferation [5]: can inhibit the proliferation; antioxidant activity ([1]; result in words): very strong antioxidant activity; medium apoB (HepG2 cells): dose-dependent reduction of medium apoB B; proliferation ([3H] thymidine incorporation) ([6]; alone): inhibit the proliferation of these cells; interaction with tamoxifen ([6]; with tamoxifen): can act synergistically with tamoxifen; Hours to end-point ([7]; soybean oil + 40 ppm): 8.35 h and 8.85 h; Hours to end-point ([7]; soybean oil + 300 ppm): 15.55 h and 15.40 h; PKC activity (PKC): inhibitors of PKC activity; cholesterol-lowering effects [8]: produce cholesterol-lowering effects in animal models; life of mice bearing tumor cells [9]: prolong the life of mice bearing tumor cells
CC(C)(C)c1cc(O)ccc1O [TBHQ, tributyl-tert-hydroquinone, reference compound]	–	–	–	–	–	–	–	–	effective antioxidants	–	–	–	Hours to end-point ([7]; soybean oil + 200 ppm): 21.10 h and 19.85 h
Cc1c(C)c2c(c(C)c1O)CC[C@@](C)(CCC[C@H](C)CCC[C@H](C)CCCC(C)C)O2 [d-α-tocopherol, reference compound]	–	–	–	–	–	–	–	–	–	–	4.6	5.1 µM (2×) and 3.5 µM	–
CC/C(=C(\c1ccccc1)c1ccc(OCCN(C)C)cc1)c1ccccc1 [tamoxifen]	–	–	–	–	–	–	–	–	–	does reverse the inhibition	–	–	–
tocotrienols	–	–	–	–	–	–	–	–	–	does not reverse the inhibition	–	–	–
